US12344643B2, “Compositions and methods for inhibition of FOXP3” (The University of Chicago, priority 2016, dated 2025)
Ends that are not written are not given here.

Key:
[1] = biological target: T1, recombinant FOXP3 leucine zipper coiled-coiled (LZCC) domain (Mus musculus, UniProt Q99JB6); assay: Fluorescence polarization assay, FITC-peptide binding to LZCC; conditions: 50 nM FITC-peptide, 1×PBS pH 8
T1 construct: the LZCC portion of FOXP3 (FOXP3 S189-K276); made in house
T1 sequence (Q99JB6 189-276): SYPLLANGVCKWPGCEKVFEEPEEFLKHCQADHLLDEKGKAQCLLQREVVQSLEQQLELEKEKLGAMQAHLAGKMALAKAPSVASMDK
Method: FIG. 7A-D. Fluorescence polarization assay to determine SAH-FOXP3 binding to recombinant FOXP3 leucine zipper coiled-coiled (LZCC) domain. (A) Serially diluted recombinant LZCC was incubated with 50 nM FITC-peptide in 1×PBS pH 8 for 5-10 mins and then fluorescent polarization was measured using a SpectraMax spectrometer. […] (B—C) Serially diluted recombinant LZCC (A) or FOXP3 ΔN (B) was incubated with 50 nM FITC-peptide in 1×PBS pH 8 for 5-10 mins followed by fluorescent polarization measurement using a SpectraMax spectrometer. (D) Shift of composite binding curves indicate increased affinity for the leucine zipper coiled-coiled (LZCC) domain and FOXP3ΔN.
A library of hydrocarbon stapled peptides were synthesized representing these templates (SAH-FOXP3DDs) that incorporated three different hydrocarbon staple positions along the solvent-exposed face so as to avoid disruption of critical contact points between ‘a’ and ‘d’ residues of the coiled-coil. Non-natural amino acids were inserted at positions i,i+7 so that the hydrocarbon staples face away from the dimerization interface (FIG. 1A). […] Both native and stapled FOXP3DD peptides were α-helical in solution at a wide range of temperatures (20-50° C.) (FIG. 1B). To achieve solubility of the unstapled constructs for CD evaluation, 20% acetonitrile:water solution was used. […]

Tregs [2] = assay: Flow cytometry of protein expression in treated Tregs; type: cell-based, mouse (C57BL/6 FOXP3IRES-GFP); conditions: dose titration
Method: (§1) FIG. 12A-B. SAH-FOXP3DD peptides are able to alter cellular expression (protein and mRNA) of FOXP3 target genes. Conventional T cells (CD4+ CD25−) and regulatory T cells (CD25+ GFP+) were isolated from CD4+ cells enriched from spleen and draining lymph nodes of FOXP3-IRES-GFP. Tregs were treated at 1000 cells per μL with peptides in OptiMem for 2 hours before being quenched with completed advanced DMEM and then stimulated with CD3/CD28 beads. Gene expression was determined using qRT-PCR 4 hours after stimulation. Membrane (live cell) or internal (fixed cell) expression of proteins was determined using flow cytometry 16 hrs after stimulation.
(§2) Tregs and Tcons were stimulated from C57BL/6 FOXP3IRES-GFP with IL-2 and CD3/CD28 microbeads for seven days and treated them with a dose titration of SAH-FOXP3DD10, or unstapled control, and measured membrane expression of CD127 (IL7Ra). Tregs and Tcons normally downregulate CD127 mRNA expression following seven days of stimulation.

Tregs [3] = assay: Quantitative PCR of mRNA in treated Tregs; type: cell-based, mouse (C57BL/6 FOXP3IRES-GFP); conditions: naïve Tregs with IL-2 and CD3/CD28 microbeads
Method: as §1, §2

[4] = tested on: regulatory T cells (Tregs); assay: In vitro Treg suppression assay (Tcon proliferation, flow cytometry); type: cell-based, mouse (C57BL/6 FOXP3IRES-GFP)
DNA probe = assay: EMSA control, peptide alone with DNA probe (non-specific binding); conditions: 50 μM peptide
Method: FIG. 9A-C. Electrophoretic mobility shift assays (EMSA). (A) SAHs block FOXP3 binding to cognate DNA; a comparison of stapled and unstapled peptides. EMSA with FOXP3ΔN incubated with increasing concentrations of different SAH-FOXP3 are shown. Labeled probe containing consensus sequence (A′GT25) for FOXP3 was incubated at room temperature for 15 mins with recombinant FOXP3ΔN and increasing concentrations of SAH peptide [3 μM to 25 μM]. The last lane in each set is 25 μM of peptide alone with DNA probe. […] IRDye700 labeled probe containing consensus sequence for NFAT was incubated at room temperature for 15 mins with 100 pmole recombinant NFAT-DBD and peptide or DMSO using the Odyssey Infrared EMSA kit per manufacturer's protocol (Li-Cor). Reactions were then separated by electrophoresis on a 10% TBE gel and imaged using an Odyssey Imager (Li-Cor).
To exclude non-specific binding to the negatively charged DNA probe, a liability of using charged peptides in EMSAs, SAH-FOXP3DDs were incubated with each probe at up to twice the highest concentration used. […] Next, SAH-FOXP3DDs were incubated with recombinant NFAT (NFAT DBDW400-W680) and the Il-2 reporter oligonucleotide ARRE2 element as a further test of specificity. SAH-FOXP3DDs were unable to inhibit NFAT:DNA binding, further validating on-target specificity of the peptides.

FOXP3:NFAT1 = assay: IL-2 promoter ARRE2 luciferase reporter, FOXP3 repression of NFAT1:AP1 transcription; type: cell-based, human; conditions: HEK cells
Method: FIG. 2A-E. Design, biochemical characterization, and functional testing of SAH-FOXP3NFATs. (A) Design strategy for SAHs targeting the FOXP3:NFAT1 dimerization interface. (B) CD showing that i(i+4) and i(i+7) stapled SAH-FOXP3NFATs and their point mutant controls are helical in solution. […] (C&D) Dose dependent inhibition of FOXP3-mediated NFAT repression with 2.5 ng (D) and 10 ng (E) FOXP3 DNA. Point mutant controls have no effect thus confirming specificity of action.
Experiments were conducted during development of embodiments herein to design stabilized α-helices of the FOXP3:NFAT1 interface (SAH-FOXP3NFAT). Using a similar approach as above, stapled peptides based on a FOXP3 α-helix, which is responsible for NFAT1 binding (FIG. 2A), were designed. Non-natural amino acids were inserted in either the i,i+4 (SAHFOXP3NFAT(i,i+4)) or i,i+7(SAHFOXP3NFAT(i,i+7)) positions. Hydrocarbon stapling of the FOXP3NFAT peptides and point mutants similarly stabilizes their helicity (FIG. 2B). The peptides were tested for inhibition of FOXP3:NFAT1 binding. Co-expression of increasing amounts of FOXP3 DNA with constitutively active NFAT1 dose dependently represses NFAT1: AP1 transcriptional activity at an IL-2 promoter ARRE2 luciferase reporter element in transfected human embryonic kidney (HEK) cells (FIG. 2C). […] Confirming specificity of action, neither point mutant control SAH had any effect (FIG. 2E). […] Possibilities include differences in cellular penetrance, binding efficiency, or intracellular trafficking between the two SAHs.

FOXP3-DNA binding = assay: EMSA with FOXP3 reticulocyte lysate (IVTT) and IRDye700 DNA probe, unstapled peptides; type: biochemical; conditions: peptides 50-200 μM, A′A1A2 probe
Method: FIG. 5A-C. Unstapled FOXP3 peptides are able to alter FOXP3-DNA binding at high concentrations. Preparation of FOXP3 proteins through In Vitro Transcription and Translation (IVTT) reticulocyte lysate: T7 DNA vectors (1 μg/25 μL) were incubated at 30° C. for 1.5 hr in reticulocyte lysate with T7 polymerase, amino acids and RNAsin per the manufacturer's protocol (TnT Coupled Reticulocyte Lysate System, Promega). IRDye700 labeled probe containing consensus sequence (A′A1A2; a DNA sequence previously published to bind FOXP3) for FOXP3 was incubated at room temperature for 15 mins with 2 μL FOXP3 reticulocyte lysate, in the presence of peptides (50-200 μM) using the Odyssey Infrared EMSA kit per manufacturer's protocol (Li-Cor). Reactions were then separated by electrophoresis on a 10% TBE gel and imaged using an Odyssey Imager (Li-Cor).

[5] = biological target: T2, recombinant LZCC protein (dimerized FOXP3) (Mus musculus, UniProt Q99JB6); assay: Chemical crosslinking (BS3 or DSS) of recombinant LZCC with SAH-FOXP3 peptides; type: biochemical; conditions: 2 hours room temperature, 1 mM BS3 or DSS
T2 construct: the LZCC portion of FOXP3 (FOXP3 S189-K276); made in house
T2 sequence (Q99JB6 189-276): T1 sequence (Q99JB6 189-276)
Method: FIG. 8A-B. Chemical Crosslinking. SAH-FOXP3 peptides incubated with recombinant LZCC protein for 2 hours at room temperature in 1×PBS. 1 mM of the chemical crosslinker BS3 or DSS was added to each tube for 30 mins at room temperature. Samples were denatured and then separated by electrophoresis on a NuPage SDS 10/a Bis-Tris gel following the manufacturer's protocol (Invitrogen). Protein was imaged after staining the gel with coomassie on the Odyssey Imager. […] In some cases, SAH peptide crosslinks with monomeric FOXP3 alone

Substance: SGSGSRAQCLLQREMVQSLEQQLVLEKEK (Ac-SGSGSRAQCLLQREMVQSLEQQLVLEKEK-NH2) [B2V3, Ac-/-Am; SGSGS hFOXP3 (229-252); unstapled native peptide]
- binding to recombinant LZCC, in words [1]: much lower affinity

Substance: RAQCLLQREMVQSLE8QLVLEKXKLSAMQAH [SAH-FOXP3DD10, Ac-/-Am; hFOXP3 (229-259); staple (Q244, E251)C]
- expression of CD44 (Tregs [2]; Tregs stimulated seven days): dose dependent decrease
- expression of CD69 (Tregs [2]; Tregs stimulated seven days): dose dependent decrease
- membrane expression of CD127 (IL7Ra) (Tregs [2]; Tregs stimulated with IL-2 and CD3/CD28 microbeads for seven days): dose dependent increase
- FOXP3 mRNA expression (Tregs [3]): correlative increase
- IL-2 mRNA expression (Tregs [3]): correlative increase
- degree of Treg inhibition ([4]; in vitro expanded Tregs): lower, but still present
- ability of treated Tregs to inhibit Tcon proliferation ([4]; naïve Tregs pretreated for 2 hours): unable to inhibit the proliferation
- binding of peptide to DNA probe (DNA probe): minimal binding

Substance: QRTXNEIYHWXTRNFAFF [SAH-FOXP3NFAT(i,i+7), β-Ala/Ac; i,i+7 stapled FOXP3/NFAT peptide]
- inhibition of FOXP3-mediated repression of NFAT1:AP1 luciferase activity (FOXP3:NFAT1; 2.5 ng FOXP3 DNA (low dose)): inhibited this FOXP3-mediated repression
- inhibition of FOXP3-mediated repression of NFAT1:AP1 luciferase activity (FOXP3:NFAT1; 2.5 ng FOXP3 DNA (low dose), listed as FOXP3NFAT(I,i+7)): dose-responsively inhibited
- inhibition of FOXP3-mediated repression of NFAT1:AP1 luciferase activity (FOXP3:NFAT1; 10 ng FOXP3 DNA (excess)): inhibited this FOXP3-mediated repression
- inhibition of FOXP3-mediated repression of NFAT1:AP1 luciferase activity (FOXP3:NFAT1; 10 ng FOXP3 DNA (excess), listed as FOXP3NFAT(I,i+7)): dose-responsively inhibited

Substance: LLDEKGRAQCLLQREMVQSLEQQLVLEKEK (LLDEKGRAQCLLQREMVQSLEQQLVLEKEK-NH2) [223-252, free N-term/-Am; hFOXP3 (223-252); unstapled; B4 has the same range]
- dissociation of FOXP3 from DNA (EMSA) (FOXP3-DNA binding): dissociate FOXP3 from DNA

Substance: KGRAQCLLQREMVQSLE8QLVLEKXKLSAMQAH [SAH-FOXP3DD4, Ac-/-Am; hFOXP3 (227-259); staple (Q244, E251)C]
- binding of peptide to DNA probe (DNA probe): minimal binding

Substance: HLLDEKGRAQCLLQREMVQSLE8QLVLEKXKLSAMQAHLAG [SAH3, Ac-/-Am; hFOXP3 (222-262); staple (Q244, E251)C]
- binding of peptide to DNA probe (DNA probe): minimal binding

Substance: QRTXNEIXHWFTRNFAFF [SAH-FOXP3NFAT(i,i+4), β-Ala/Ac; i,i+4 stapled FOXP3/NFAT peptide]
- inhibition of FOXP3-mediated repression of NFAT1:AP1 luciferase activity (FOXP3:NFAT1; 2.5 ng FOXP3 DNA (low dose)): inhibited this FOXP3-mediated repression
- inhibition of FOXP3-mediated repression of NFAT1:AP1 luciferase activity (FOXP3:NFAT1; 2.5 ng FOXP3 DNA (low dose), listed as FOXP3NFAT(i,i+4)): fully inhibited
- inhibition of FOXP3-mediated repression of NFAT1:AP1 luciferase activity (FOXP3:NFAT1; 10 ng FOXP3 DNA (excess)): inhibited this FOXP3-mediated repression
- inhibition of FOXP3-mediated repression of NFAT1:AP1 luciferase activity (FOXP3:NFAT1; 10 ng FOXP3 DNA (excess), listed as FOXP3NFAT(i,i+4)): less able to inhibit

Substance: F8KHCQADXLLDEKGRAQCLLQREMVQSLEQQLVLEKEKL [SAH7, Ac-/-Am; hFOXP3 (214-253); staple (1215, H222)Z]
- amount of dimerized FOXP3 protein after crosslinking [5]: modest decrease

Substance: RAQCLLQREMVQSLEQQLVLEKEKLSAMQAH (Ac-RAQCLLQREMVQSLEQQLVLEKEKLSAMQAH-NH2) [229-259, Ac-/-Am; hFOXP3 (229-259); unstapled]
- dissociation of FOXP3 from DNA (EMSA) (FOXP3-DNA binding): dissociate FOXP3 from DNA

Substance: LLDEKGRAQCL8QREMVQXLEQQLVLEKEK [SAH9, Ac-/-Am; hFOXP3 (223-252); staple (L234, S241)B]
- amount of dimerized FOXP3 protein after crosslinking [5]: modest decrease

Substance: SGSRAQCLLQREMVQSLEQQLVLEKEK (Ac-SGSRAQCLLQREMVQSLEQQLVLEKEK-NH2) [B2V2, Ac-/-Am; SGS hFOXP3 (229-252); unstapled native peptide]
- binding to recombinant LZCC, in words [1]: much lower affinity
